Experimental data: paper PMC7736581, “Activation of the IRE1 RNase through remodeling of the kinase front pocket by ATP-competitive ligands” (Nature Communications, 2020)

How the values were obtained:
Assay in all cases: biochemical
p38_gamma = target: T1, p38_gamma (Homo sapiens, UniProt P53778); parameters: Invitrogen kinase panel: Z'Lyte activity (ATP at Km) or LanthaScreen competitive ATP-site binding, percent inhibition
T1 construct: gene MAPK12

PKC_delta = target: T2, PKC_delta (Homo sapiens, UniProt Q05655); parameters: Invitrogen kinase panel: Z'Lyte activity (ATP at Km) or LanthaScreen competitive ATP-site binding, percent inhibition
T2 construct: gene PRKCD

CK1_gamma1 = target: T3, CK1_gamma1 (Homo sapiens, UniProt Q9HCP0); parameters: Invitrogen kinase panel: Z'Lyte activity (ATP at Km) or LanthaScreen competitive ATP-site binding, percent inhibition
T3 construct: gene CSNK1G1

TXK = TXK (Homo sapiens, UniProt P42681); parameters: Invitrogen kinase panel: Z'Lyte activity (ATP at Km) or LanthaScreen competitive ATP-site binding, percent inhibition
ERN1 = ERN1 (Homo sapiens, UniProt O75460); parameters: Invitrogen kinase panel: Z'Lyte activity (ATP at Km) or LanthaScreen competitive ATP-site binding, percent inhibition
PAK4 = PAK4 (Homo sapiens, UniProt O96013); parameters: Invitrogen kinase panel: Z'Lyte activity (ATP at Km) or LanthaScreen competitive ATP-site binding, percent inhibition
Frk = Frk (Homo sapiens, UniProt P42685); parameters: Invitrogen kinase panel: Z'Lyte activity (ATP at Km) or LanthaScreen competitive ATP-site binding, percent inhibition
NEK6 = NEK6 (Homo sapiens, UniProt Q9HC98); parameters: Invitrogen kinase panel: Z'Lyte activity (ATP at Km) or LanthaScreen competitive ATP-site binding, percent inhibition
SRPK1 = SRPK1 (Homo sapiens, UniProt Q96SB4); parameters: Invitrogen kinase panel: Z'Lyte activity (ATP at Km) or LanthaScreen competitive ATP-site binding, percent inhibition
LRRK2 = LRRK2 (Homo sapiens, UniProt Q5S007); parameters: Invitrogen kinase panel: Z'Lyte activity (ATP at Km) or LanthaScreen competitive ATP-site binding, percent inhibition
Fes = Fes (Homo sapiens, UniProt P07332); parameters: Invitrogen kinase panel: Z'Lyte activity (ATP at Km) or LanthaScreen competitive ATP-site binding, percent inhibition
NEK9 = NEK9 (Homo sapiens, UniProt Q8TD19); parameters: Invitrogen kinase panel: Z'Lyte activity (ATP at Km) or LanthaScreen competitive ATP-site binding, percent inhibition
CDK8/cyclinC = CDK8/cyclinC (Homo sapiens, UniProt P49336); parameters: Invitrogen kinase panel: Z'Lyte activity (ATP at Km) or LanthaScreen competitive ATP-site binding, percent inhibition
PERK = target: T4, PERK (Homo sapiens, UniProt Q9NZJ5); parameters: 33P incorporation kinase assay (Reaction Biology), myelin basic protein substrate; conditions: 10 uM ATP
T4 construct: gene EIF2AK3
T4 sequence (Q9NZJ5 1-1116): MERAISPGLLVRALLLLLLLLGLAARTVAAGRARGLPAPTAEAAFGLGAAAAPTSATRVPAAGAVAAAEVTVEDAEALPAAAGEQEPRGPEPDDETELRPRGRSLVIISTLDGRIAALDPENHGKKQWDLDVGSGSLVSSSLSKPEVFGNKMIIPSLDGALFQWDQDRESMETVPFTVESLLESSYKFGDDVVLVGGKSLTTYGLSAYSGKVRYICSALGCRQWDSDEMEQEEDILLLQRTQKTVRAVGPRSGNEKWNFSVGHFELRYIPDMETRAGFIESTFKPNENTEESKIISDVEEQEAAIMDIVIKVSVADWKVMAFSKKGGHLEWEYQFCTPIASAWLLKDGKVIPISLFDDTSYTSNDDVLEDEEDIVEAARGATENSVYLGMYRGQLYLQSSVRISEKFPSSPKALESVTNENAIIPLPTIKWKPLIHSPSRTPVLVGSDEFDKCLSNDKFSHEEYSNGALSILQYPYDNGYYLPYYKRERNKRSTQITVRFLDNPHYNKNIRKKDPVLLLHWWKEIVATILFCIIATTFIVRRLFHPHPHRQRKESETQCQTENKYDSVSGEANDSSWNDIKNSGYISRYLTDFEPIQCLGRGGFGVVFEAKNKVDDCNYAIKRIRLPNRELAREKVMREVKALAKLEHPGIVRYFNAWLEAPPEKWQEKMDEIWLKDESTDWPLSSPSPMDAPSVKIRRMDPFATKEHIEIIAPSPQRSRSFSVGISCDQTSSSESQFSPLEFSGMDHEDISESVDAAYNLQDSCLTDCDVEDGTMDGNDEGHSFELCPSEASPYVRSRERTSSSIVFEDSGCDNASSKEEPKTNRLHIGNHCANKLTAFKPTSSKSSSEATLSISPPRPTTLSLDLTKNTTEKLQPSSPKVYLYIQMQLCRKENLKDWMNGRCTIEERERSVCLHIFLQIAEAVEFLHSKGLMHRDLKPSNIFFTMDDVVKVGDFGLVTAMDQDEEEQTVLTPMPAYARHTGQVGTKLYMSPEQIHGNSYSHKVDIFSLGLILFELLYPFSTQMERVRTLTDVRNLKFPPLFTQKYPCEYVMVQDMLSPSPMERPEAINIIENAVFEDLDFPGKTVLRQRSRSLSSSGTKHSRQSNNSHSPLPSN
Description: We set out to identify allosteric activators of IRE1 RNase by screening internal compound libraries for binding to the kinase, using a published ATP-competitive TR-FRET assay. We then tested kinase binders to assess RNase modulation in an IRE1-specific kinetic RNA cleavage assay that uses the cytoplasmic construct IRE1-LKR (Q470-L977) (Supplementary Fig. 1a). […] Next, we tested these compounds in KMS-11 multiple myeloma cells, known to express functional IRE1 and strongly depend on the IRE1 pathway due to hyper-production of immunoglobulins in the ER[31]. We measured mRNA levels of XBP1s and the well-established RIDD target DGAT2[22] (Fig. 1c and Supplementary Fig. 1c, respectively) using a branched DNA (bDNA) assay. […] Importantly, neither G-9807 nor G-1749 inhibit PERK (Supplementary Table 1).

T1 sequence (P53778 whole entry): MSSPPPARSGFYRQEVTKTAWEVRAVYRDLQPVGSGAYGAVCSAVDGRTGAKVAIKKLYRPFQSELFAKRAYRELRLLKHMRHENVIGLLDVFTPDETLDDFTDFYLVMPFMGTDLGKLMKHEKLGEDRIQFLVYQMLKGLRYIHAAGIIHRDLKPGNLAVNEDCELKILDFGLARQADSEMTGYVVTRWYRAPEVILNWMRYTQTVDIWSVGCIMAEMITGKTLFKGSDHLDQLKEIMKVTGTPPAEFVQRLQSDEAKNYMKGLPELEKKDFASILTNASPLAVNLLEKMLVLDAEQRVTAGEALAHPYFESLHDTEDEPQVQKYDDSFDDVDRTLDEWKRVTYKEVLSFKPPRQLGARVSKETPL
Chain of LRRK2 (Q5S007 whole entry): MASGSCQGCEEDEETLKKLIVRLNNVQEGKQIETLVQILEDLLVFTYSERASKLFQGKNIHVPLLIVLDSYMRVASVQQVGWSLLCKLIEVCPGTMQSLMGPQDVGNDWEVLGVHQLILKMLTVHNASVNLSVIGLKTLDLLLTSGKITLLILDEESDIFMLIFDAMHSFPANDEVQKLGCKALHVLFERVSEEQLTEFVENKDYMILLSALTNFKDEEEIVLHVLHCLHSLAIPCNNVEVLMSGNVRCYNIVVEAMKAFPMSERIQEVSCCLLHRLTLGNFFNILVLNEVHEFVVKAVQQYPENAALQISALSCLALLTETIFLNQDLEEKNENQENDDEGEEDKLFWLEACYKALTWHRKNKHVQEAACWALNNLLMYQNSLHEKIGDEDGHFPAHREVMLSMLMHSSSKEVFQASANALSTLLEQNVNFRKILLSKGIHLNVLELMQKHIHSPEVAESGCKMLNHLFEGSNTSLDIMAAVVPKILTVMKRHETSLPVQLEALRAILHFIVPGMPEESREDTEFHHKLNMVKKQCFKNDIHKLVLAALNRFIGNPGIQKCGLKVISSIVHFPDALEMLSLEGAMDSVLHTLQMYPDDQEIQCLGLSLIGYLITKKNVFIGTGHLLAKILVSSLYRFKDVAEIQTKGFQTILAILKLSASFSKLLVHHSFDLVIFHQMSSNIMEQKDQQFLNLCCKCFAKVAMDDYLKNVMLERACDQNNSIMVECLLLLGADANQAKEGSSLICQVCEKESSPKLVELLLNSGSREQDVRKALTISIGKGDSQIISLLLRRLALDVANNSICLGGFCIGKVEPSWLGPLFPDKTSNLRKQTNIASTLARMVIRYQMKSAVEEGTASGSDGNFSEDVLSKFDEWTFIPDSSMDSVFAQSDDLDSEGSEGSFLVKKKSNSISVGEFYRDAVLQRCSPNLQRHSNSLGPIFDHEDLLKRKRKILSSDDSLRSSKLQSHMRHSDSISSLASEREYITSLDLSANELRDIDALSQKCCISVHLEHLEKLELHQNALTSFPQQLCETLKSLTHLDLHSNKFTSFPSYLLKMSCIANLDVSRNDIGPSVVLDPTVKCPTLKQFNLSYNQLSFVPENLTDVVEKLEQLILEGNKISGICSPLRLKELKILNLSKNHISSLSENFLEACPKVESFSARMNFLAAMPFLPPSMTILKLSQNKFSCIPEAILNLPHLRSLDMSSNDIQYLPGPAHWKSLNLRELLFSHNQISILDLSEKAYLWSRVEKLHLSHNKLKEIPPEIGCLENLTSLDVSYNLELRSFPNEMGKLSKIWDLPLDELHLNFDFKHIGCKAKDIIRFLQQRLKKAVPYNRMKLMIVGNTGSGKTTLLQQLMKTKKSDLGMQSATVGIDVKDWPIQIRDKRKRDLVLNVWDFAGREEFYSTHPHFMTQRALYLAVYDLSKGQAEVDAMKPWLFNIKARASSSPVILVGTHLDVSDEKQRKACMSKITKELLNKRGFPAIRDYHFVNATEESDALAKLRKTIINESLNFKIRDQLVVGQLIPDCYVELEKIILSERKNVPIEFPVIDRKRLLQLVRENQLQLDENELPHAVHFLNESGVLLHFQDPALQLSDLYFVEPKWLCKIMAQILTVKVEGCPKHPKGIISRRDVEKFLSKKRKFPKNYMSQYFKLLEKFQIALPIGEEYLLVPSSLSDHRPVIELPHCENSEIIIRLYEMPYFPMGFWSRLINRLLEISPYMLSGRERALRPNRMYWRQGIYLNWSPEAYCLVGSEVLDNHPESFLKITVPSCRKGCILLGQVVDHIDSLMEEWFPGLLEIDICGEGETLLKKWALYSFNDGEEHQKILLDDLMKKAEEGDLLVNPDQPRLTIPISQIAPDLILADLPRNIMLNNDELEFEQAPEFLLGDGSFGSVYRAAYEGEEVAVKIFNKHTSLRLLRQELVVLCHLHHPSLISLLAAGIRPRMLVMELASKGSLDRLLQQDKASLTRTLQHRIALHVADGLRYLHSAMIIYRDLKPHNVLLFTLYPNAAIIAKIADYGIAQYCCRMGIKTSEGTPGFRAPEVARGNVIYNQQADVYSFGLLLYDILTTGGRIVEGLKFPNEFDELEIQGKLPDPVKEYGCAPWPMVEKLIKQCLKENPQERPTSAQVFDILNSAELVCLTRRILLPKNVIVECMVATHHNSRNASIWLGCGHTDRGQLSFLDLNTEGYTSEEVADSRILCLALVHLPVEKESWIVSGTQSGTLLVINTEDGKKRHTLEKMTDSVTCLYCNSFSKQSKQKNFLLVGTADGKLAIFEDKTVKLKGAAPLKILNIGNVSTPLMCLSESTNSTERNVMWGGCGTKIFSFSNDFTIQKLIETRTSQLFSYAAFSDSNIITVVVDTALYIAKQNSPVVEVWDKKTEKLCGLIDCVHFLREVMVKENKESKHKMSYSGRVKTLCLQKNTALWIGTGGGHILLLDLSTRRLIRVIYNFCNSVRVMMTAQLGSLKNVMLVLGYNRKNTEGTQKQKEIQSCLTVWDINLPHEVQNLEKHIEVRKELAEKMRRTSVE
T3 sequence (Q9HCP0 whole entry): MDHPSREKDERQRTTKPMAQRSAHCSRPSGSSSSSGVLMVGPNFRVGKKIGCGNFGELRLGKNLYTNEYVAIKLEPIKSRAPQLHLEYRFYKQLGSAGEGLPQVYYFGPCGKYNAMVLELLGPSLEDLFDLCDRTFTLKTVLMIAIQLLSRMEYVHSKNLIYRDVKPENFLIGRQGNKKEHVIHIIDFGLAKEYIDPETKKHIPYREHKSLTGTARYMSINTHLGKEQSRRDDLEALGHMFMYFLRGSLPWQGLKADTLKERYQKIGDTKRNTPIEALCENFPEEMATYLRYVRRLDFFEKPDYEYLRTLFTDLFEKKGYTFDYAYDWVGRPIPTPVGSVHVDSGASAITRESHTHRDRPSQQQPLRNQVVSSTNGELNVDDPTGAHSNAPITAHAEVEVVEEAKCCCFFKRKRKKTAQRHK
Chain of TXK (P42681 whole entry): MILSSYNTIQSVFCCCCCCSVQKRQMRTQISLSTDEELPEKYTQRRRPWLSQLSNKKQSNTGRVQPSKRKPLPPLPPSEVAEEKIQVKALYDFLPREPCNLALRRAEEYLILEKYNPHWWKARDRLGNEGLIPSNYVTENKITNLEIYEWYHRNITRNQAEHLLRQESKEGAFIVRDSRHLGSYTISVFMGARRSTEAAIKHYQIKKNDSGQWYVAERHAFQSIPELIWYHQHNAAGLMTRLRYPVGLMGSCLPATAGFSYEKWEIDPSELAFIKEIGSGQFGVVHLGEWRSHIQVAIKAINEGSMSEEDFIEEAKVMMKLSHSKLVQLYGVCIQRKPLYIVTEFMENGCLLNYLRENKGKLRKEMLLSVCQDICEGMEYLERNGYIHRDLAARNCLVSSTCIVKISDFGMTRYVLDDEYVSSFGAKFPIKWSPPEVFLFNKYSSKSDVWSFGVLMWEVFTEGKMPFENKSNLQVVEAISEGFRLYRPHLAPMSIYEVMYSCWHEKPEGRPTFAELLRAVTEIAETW
Chain of NEK6 (Q9HC98 whole entry): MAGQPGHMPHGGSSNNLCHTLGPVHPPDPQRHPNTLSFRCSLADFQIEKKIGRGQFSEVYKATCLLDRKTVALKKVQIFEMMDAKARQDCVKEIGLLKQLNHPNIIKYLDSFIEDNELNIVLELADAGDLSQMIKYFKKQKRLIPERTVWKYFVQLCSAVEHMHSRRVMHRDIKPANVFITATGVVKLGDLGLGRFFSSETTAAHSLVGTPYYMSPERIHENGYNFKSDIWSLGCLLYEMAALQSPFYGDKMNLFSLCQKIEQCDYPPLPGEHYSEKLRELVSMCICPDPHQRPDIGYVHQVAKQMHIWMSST
Chain of Frk (P42685 whole entry): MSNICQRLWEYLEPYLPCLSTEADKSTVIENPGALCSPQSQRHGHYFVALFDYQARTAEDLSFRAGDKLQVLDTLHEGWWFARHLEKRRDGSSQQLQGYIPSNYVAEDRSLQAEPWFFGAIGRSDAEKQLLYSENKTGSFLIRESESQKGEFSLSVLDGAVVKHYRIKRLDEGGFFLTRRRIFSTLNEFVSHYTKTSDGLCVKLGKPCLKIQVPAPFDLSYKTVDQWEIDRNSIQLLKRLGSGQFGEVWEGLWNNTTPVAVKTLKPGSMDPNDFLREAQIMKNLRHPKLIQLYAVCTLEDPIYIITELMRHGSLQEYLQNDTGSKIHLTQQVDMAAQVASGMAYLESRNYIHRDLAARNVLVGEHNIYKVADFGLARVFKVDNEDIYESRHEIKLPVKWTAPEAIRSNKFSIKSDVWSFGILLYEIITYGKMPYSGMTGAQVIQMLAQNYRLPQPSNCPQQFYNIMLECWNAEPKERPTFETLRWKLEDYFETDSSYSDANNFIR

Structure (SMILES) | inhibition at 1 µM (p38_gamma) [%] | inhibition at 1 µM (PKC_delta) [%] | inhibition at 1 µM (CK1_gamma1) [%] | inhibition at 1 µM (TXK) [%] | inhibition at 1 µM (ERN1) [%] | inhibition at 1 µM (PAK4) [%] | inhibition at 1 µM (Frk) [%] | inhibition at 1 µM (NEK6) [%] | inhibition at 1 µM (SRPK1) [%] | inhibition at 1 µM (LRRK2) [%] | inhibition at 1 µM (Fes) [%] | inhibition at 1 µM (NEK9) [%] | inhibition at 1 µM (CDK8/cyclinC) [%] | inhibition at 1 µM (PERK) [%]
CCOC(=O)Nc1cccc2c(Oc3ncccc3-c3ccnc(N[C@H]4CCCNC4)n3)c(C)ccc12 [G-1749] | 18 | 12 | -1.5 | 2 | 99.5 | 0 | 10.5 | 2.5 | 6.5 | -3.5 | 5 | -3 | 2.5 | 9.9
CC#CC(=O)Nc1cccc2c(Oc3ncccc3-c3ccnc(N[C@H]4CCCNC4)n3)c(C)ccc12 [G-7658] | 16.5 | 15 | 9 | 2 | 106 | 0 | 1.5 | 17.5 | 5 | 8.5 | 3.5 | -0.5 | 2 | 
Cc1ccc2c(NS(=O)(=O)c3ccccc3Cl)cccc2c1Oc1ncccc1-c1ccnc(N[C@H]2CCCNC2)n1 [AMG-18] |  |  |  |  |  |  |  |  |  |  |  |  |  | 5.4
O=c1cc(-c2n[nH]c3ncc(-c4c(F)cccc4F)cc23)nc(N2CCC(O)CC2)[nH]1 [G-9807] |  |  |  |  |  |  |  |  |  |  |  |  |  | 4.5
